These results are taken from patent US5084449A, “Anti-bacterial compositions comprising a substituted bis-(4-aminophenyl)-sulfone and a dihydro-folic acid reductase” (Dr. Karl Thomae GmbH, priority 1984, dated 1992).

For data set [1], the system named is 7,8-dihydropteroic acid-synthetase. In words: inhibiting effect on 7,8-dihydropteroic acid synthesis in cell-free enzyme extract of plasmodia (HPLC). The format is biochemical. To be noted: concentration giving 50% reduction of 7,8-dihydropteroic acid synthesis; cell-free enzyme extract of Plasmodium berghei; incubation 4 hours; HPLC/UV; read-out: i50. The method, then:
M=4'-Amino-2-methyl-4-propylamino-diphenylsulfone were tested for their biological activity in cell-free enzyme extract of Plasmodiumberghei as follows.
Plasmodia are isolated from mouse blood infected with Plasmodium berghei in accordance with the following reference (Heidrich, H. -G. et al., Z. Parasitenkd. 59: 151 (1979). The plasmodia were opened by ultrasound. Proteins with […] acid synthetase activity are concentrated by gel filtration.
The inhibiting effect on 7,8-dihydropteroic acid synthesis of plasmodia is determined as follows:
Under optimum reaction conditions, i.e. Vmax for the reaction which is to be inhibited, the concentration of inhibitor in the new compounds resulting in a 50% reduction in the enzyme synthesis performance is determined. For this purpose the quantity of 7,8-dihydropteroic acid synthesised from the enzyme extract is determined by means of high performance liquid chromatography (HPLC) using a UV detector after an incubation period of 4 hours. It was established that the synthesis of 7,8-dihydropteroic acid proceeded in a linear manner during this period.
The i50 values obtained by this method for a selection of the compounds claimed and those of the comparison preparations bis (4-aminophenyl)sulfone (Dapsone®, DDS) and N^1 -(5,6-dimethoxy-4-pyrimidinyl)-sulfanilamide (Fanasil®) are given in the following Table: […]

Data set [2] can be described thus: methemoglobin formation after oral administration to cats. The format is in vivo. To be noted: 200 mg/kg by oral route. The text has this:
Moreover, in contrast to Dapsone®, the new compounds are well tolerated and in particular show a very low methemoglobin formulation.

On to `CC(C)Nc1ccc(S(=O)(=O)c2ccc(N)cc2)c(Cl)c1` [Substance B, 4'-Amino-2-chloro-4-isopropylamino-diphenylsulfone], for which, in data set [1], the IC50 is 2.67 µM.

For the molecule `CNc1cc(N)ccc1S(=O)(=O)c1ccc(N)cc1` [Substance H, 4,4'-Diamino-2-(N-methylamino)-diphenylsulfone], in data set [1], the IC50 stood at 4.1 µM.

With `Nc1ccc(S(=O)(=O)c2ccc(N)cc2)cc1` [Dapsone ®, bis (4-aminophenyl)sulfone, reference compound], the IC50 in data set [1] stood at 12.4 µM.

On to `CN(C)c1cc(N)ccc1S(=O)(=O)c1ccc(N)cc1` [Substance G, 4,4'-Diamino-2-(N,N-dimethylamino)-diphenylsulfone], for which the IC50 in data set [1] is 12.9 µM.

Turning to `CCCNc1ccc(S(=O)(=O)c2ccc(N)cc2)c(C)c1` [Substance M, 4'-Amino-2-methyl-4-propylamino-diphenylsulfone], in data set [1], the IC50 came to 2.44 µM. The methemoglobin formulation result in data set [2] is “no methemoglobin formulation is detected”.

Turning to `CCNc1ccc(S(=O)(=O)c2ccc(N)cc2)c(C)c1` [Substance C, 4-Ethylamino-4'-amino-2-methyl-diphenylsulfone], the IC50 in data set [1] was 2.62 µM.

Regarding `CCNc1ccc(S(=O)(=O)c2ccc(N)cc2)c(Cl)c1` [Substance A, 4-Ethylamino-4'-amino-2-chloro-diphenylsulfone], the IC50 in data set [1] amounted to 2.1 µM.

With `CCNc1ccc(S(=O)(=O)c2ccc(N)cc2)c(C(F)(F)F)c1` [Substance D, 4-Ethylamino-4'-amino-2-trifluoromethyl-diphenyl-sulfone], the IC50 in data set [1] came to 5.86 µM.

Regarding `CNc1ccc(S(=O)(=O)c2ccc(N)cc2)c(C)c1` [Substance L, 4'-Amino-2-methyl-4-methylamino-diphenylsulfone], the IC50 in data set [1] came out at 2.94 µM.

Consider `CC(=O)c1cc(N)ccc1S(=O)(=O)c1ccc(N)cc1` [Substance K, 4,4'-Diamino-2-methylcarbonyl-diphenylsulfone], for which the IC50 in data set [1] was found to be 12.9 µM.

Consider `Nc1ccc(S(=O)(=O)c2ccc(N)cc2CO)cc1` [Substance E, 4,4'-Diamino-2-hydroxymethyl-diphenylsulfone], for which, in data set [1], the IC50 came to 4.9 µM.

In the case of `N#Cc1cc(N)ccc1S(=O)(=O)c1ccc(N)cc1` [Substance I, 4,4'-Diamino-2-cyano-diphenylsulfone], the IC50 in data set [1] came to 12.5 µM. In addition, the methemoglobin formulation result in data set [2] is “no methemoglobin formulation is detected”.

As for `CC(O)c1cc(N)ccc1S(=O)(=O)c1ccc(N)cc1` (stereo not shown) [Substance F, 4,4'-Diamino-2-(1-hydroxyethyl)-diphenylsulfone], the IC50 in data set [1] came to 10.4 µM.

In the case of `COc1ncnc(NS(=O)(=O)c2ccc(N)cc2)c1OC` [Fanasil ®, N^1-(5,6-dimethoxy-4-pyrimidinyl)-sulfanilamide, reference compound], the IC50 in data set [1] came out at 200 µM.
